Laboratory results reported in patent US8716284B2, “Adamantyl diamide derivatives and uses of same” (H. Lundbeck A/S, priority 2008, dated 2014).

Assays:
[1] = biological target: mGluR5 (Homo sapiens, UniProt P41594); assay: Radioligand binding assay, [3H]MPEP filtration binding to membrane homogenates; details: 5 nM [3H]MPEP; Ki calculated from IC50 by Cheng-Prusoff
Procedure: Binding assays were performed as described in [J. A. O'Brien et al. Mol. Pharmacol., 2003, 64, 731-740] with slight modifications. Briefly, after thawing, the membrane homogenates were resuspended in 50 mM Tris-HCl, 0.9% NaCl binding buffer at pH 7.4 to a final assay concentration of 40 μg protein/well for [^3H]methoxy-5-(2-pyridinylethynyl)pyridine ([^3H] MPEP) (American Radiolabeled Chemicals, Inc., St. Louis, Mo.) filtration binding. Incubations included 5 nM [^3H] MPEP, membranes and either buffer or varying concentrations of compound. Samples were incubated for 60 min at room temperature with shaking. Non-specific binding was defined with 10 μM MPEP. After incubation, samples were filtered over a GF/C filter (presoaked in 0.25% polyethyleneimine (PEI)) and then washed 4 times using a Tomtec® Harvester 96® Mach III cell harvester (Tomtec, Hamden, Conn.) with 0.5 mL ice-cold 50 mM Tris-HCl (pH 7.4).
IC50 values were derived from the inhibition curve and Ki values were calculated according to the Cheng and Prusoff equation of Ki=IC50/(1+[L]/Kd) described in [Y. Cheng and W. H. Prusoff Biochem. Pharmacol. 1973, 22, 3099-3108] where [L] is the concentration of radioligand and Kd is its dissociation constant at the receptor, derived from the saturation isotherm.

[2] = biological target: T1, rat metabotropic glutamate receptor 5 (mGluR5) (Rattus norvegicus, UniProt P31424); assay: Calcium mobilization assay (FLIPR) for negative or positive allosteric activity, HEK 293 cells; type: cell-based; details: for Emax: HEK293, negative allosteric modulation, inhibition of EC80 glutamate response, read-out: FLIPR maximum inhibition; for EC50 / maximum modulation: positive modulation, increase in EC20 glutamate response
T1 construct: expressed in transfected cells; host or cells: HEK 293
T1 sequence (P31424 21-1171 isoform P31424-2 limits assumed): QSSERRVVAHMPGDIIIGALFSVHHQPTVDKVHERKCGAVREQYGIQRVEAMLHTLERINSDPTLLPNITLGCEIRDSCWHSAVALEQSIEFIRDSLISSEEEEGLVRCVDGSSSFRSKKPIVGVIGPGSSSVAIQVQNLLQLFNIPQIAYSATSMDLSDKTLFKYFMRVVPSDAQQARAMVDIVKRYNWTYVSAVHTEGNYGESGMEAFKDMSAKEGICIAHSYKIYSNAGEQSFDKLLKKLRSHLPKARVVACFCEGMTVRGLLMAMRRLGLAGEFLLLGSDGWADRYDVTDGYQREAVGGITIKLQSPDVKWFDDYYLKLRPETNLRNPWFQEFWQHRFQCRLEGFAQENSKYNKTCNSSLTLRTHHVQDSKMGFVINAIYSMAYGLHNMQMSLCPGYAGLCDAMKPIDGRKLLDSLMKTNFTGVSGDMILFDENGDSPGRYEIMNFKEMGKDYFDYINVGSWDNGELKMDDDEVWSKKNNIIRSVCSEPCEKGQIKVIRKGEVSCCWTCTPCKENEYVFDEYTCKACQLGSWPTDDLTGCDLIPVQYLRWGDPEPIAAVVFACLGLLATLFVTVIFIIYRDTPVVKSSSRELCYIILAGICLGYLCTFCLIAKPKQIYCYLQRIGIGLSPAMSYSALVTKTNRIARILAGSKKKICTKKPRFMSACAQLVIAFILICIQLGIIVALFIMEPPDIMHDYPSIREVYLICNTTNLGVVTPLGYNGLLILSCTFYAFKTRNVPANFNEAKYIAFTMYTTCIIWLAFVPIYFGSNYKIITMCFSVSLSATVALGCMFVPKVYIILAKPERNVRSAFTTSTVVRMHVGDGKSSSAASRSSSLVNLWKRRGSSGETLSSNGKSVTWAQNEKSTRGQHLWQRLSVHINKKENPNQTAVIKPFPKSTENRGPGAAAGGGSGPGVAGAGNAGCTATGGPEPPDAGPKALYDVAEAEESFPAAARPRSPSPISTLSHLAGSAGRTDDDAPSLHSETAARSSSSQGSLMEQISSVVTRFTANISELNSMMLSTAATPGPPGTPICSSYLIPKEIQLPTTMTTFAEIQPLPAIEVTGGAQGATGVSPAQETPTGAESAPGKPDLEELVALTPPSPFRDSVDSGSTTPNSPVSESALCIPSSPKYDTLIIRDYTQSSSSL
Outline: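 HEK 293 cells stably expressing rat mGluR5, Fluo-4 loaded in HEPES-buffered HBSS pH 7.4 with 0.1% BSA and probenecid. Compound added with EC20 (potentiation) or EC80 (inhibition) glutamate; fluorescence read over 3 min at room temperature. Basal-subtracted maximum fluorescence change fitted to Hill equation.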

Sequence of mGluR5 (P41594 21-1212): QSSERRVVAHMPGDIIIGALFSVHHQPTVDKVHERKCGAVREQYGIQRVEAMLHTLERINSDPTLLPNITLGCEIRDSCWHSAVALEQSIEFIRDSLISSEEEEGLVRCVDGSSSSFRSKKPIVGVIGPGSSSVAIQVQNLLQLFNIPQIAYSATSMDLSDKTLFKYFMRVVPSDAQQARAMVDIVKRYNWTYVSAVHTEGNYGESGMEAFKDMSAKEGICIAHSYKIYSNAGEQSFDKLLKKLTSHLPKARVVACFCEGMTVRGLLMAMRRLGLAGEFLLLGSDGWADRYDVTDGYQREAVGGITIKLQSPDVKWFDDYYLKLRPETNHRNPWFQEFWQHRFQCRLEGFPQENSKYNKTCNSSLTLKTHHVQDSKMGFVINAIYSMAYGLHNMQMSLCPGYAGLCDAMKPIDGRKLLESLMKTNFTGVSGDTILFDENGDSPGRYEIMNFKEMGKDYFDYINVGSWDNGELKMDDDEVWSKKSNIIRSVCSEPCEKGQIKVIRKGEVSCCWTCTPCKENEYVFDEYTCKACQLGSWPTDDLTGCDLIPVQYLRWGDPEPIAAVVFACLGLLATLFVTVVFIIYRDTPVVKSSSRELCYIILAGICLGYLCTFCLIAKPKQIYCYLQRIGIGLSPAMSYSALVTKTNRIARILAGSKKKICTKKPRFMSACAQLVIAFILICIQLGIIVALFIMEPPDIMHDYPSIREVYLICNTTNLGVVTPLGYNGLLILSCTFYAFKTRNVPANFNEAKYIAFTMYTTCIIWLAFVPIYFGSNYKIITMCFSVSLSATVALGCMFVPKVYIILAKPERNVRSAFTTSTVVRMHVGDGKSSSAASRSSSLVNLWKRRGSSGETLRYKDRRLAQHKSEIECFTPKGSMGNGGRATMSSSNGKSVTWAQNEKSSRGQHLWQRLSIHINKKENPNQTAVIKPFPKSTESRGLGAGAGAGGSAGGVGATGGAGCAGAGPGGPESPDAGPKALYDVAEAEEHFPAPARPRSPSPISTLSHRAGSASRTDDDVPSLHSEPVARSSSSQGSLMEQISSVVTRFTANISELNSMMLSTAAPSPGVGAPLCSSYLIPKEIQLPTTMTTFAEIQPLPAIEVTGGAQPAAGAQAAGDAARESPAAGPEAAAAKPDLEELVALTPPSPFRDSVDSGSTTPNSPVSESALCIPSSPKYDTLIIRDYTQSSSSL

Row | SMILES | Emax [2] [%] | further results
1 | Cn1nc2ccccc2c1C(=O)NC12CC3CC(CC(NC(=O)c4ccccn4)(C3)C1)C2 [Example 79, 2-Methyl-2H-indazole-3-carboxylic acid {3-[(pyridine-2-carbonyl)-amino]-adamantan-1-yl}-amide] | – | Ki [1]: 6 to 700 nM
2 | COCCCNc1cccc(C(=O)NC23CC4CC(CC(NC(=O)c5cccc(C)n5)(C4)C2)C3)n1 [Example 231, 6-(3-Methoxy-propylamino)-pyridine-2-carboxylic acid {3-[(6-methyl-pyridine-2-carbonyl)-amino]-adamantan-1-yl}-amide] | 63 to 99 | –
3 | Cc1cccc(C(=O)NC23CC4CC(C2)CC(NC(=O)c2cccc(NCCN(C)C)n2)(C4)C3)n1 [Example 232, 6-(2-Dimethylamino-ethylamino)-pyridine-2-carboxylic acid {3-[(6-methyl-pyridine-2-carbonyl)-amino]-adamantan-1-yl}-amide] | 63 to 99 | –
4 | Cc1cccc(C(=O)NC23CC4CC(C2)CC(NC(=O)c2cccc(N(C)CCCN(C)C)n2)(C4)C3)n1 [Example 233, 6-[(3-Dimethylamino-propyl)-methyl-amino]-pyridine-2-carboxylic acid {3-[(6-methyl-pyridine-2-carbonyl)-amino]-adamantan-1-yl}-amide] | 63 to 99 | –
5 | CC(=O)NCCNc1cccc(C(=O)NC23CC4CC(CC(NC(=O)c5cccc(C)n5)(C4)C2)C3)n1 [Example 234, 6-(2-Acetylamino-ethylamino)-pyridine-2-carboxylic acid {3-[(6-methyl-pyridine-2-carbonyl)-amino]-adamantan-1-yl}-amide] | 63 to 99 | –
6 | COCCNc1cccc(C(=O)NC23CC4CC(CC(NC(=O)c5cccc(C)n5)(C4)C2)C3)n1 [Example 235] | 63 to 99 | –
7 | Cc1cccc(C(=O)NC23CC4CC(C2)CC(NC(=O)c2cccc(NCCCN(C)C)n2)(C4)C3)n1 [Example 236, 6-(3-Dimethylamino-propylamino)-pyridine-2-carboxylic acid {3-[(6-methyl-pyridine-2-carbonyl)-amino]-adamantan-1-yl}-amide] | 63 to 99 | –
8 | Cc1cccc(C(=O)NC23CC4CC(C2)CC(NC(=O)c2cccc(N5CCC[C@H]5CO)n2)(C4)C3)n1 [Example 237, 6-((S)-2-Hydroxymethyl-pyrrolidin-1-yl)-pyridine-2-carboxylic acid {3-[(6-methyl-pyridine-2-carbonyl)-amino]-adamantan-1-yl}-amide] | 63 to 99 | –
9 | Cc1cccc(C(=O)NC23CC4CC(C2)CC(NC(=O)c2cccc(N5CCC[C@@H]5CO)n2)(C4)C3)n1 [Example 238, 6-((R)-2-Hydroxymethyl-pyrrolidin-1-yl)-pyridine-2-carboxylic acid {3-[(6-methyl-pyridine-2-carbonyl)-amino]-adamantan-1-yl}-amide] | 63 to 99 | –
10 | Cc1cccc(C(=O)NC23CC4CC(C2)CC(NC(=O)c2cccc(N5CCC[C@H]5C(N)=O)n2)(C4)C3)n1 [Example 239, 6-((S)-2-Carbamoyl-pyrrolidin-1-yl)-pyridine-2-carboxylic acid {3-[(6-methyl-pyridine-2-carbonyl)-amino]-adamantan-1-yl}-amide] | 63 to 99 | –
11 | Cc1cccc(C(=O)NC23CC4CC(C2)CC(NC(=O)c2cccc(NCCC(N)=O)n2)(C4)C3)n1 [Example 240, 6-(2-Carbamoyl-ethylamino)-pyridine-2-carboxylic acid (3-[(6-methyl-pyridine-2-carbonyl)-amino]-adamantan-1-yl}-amide] | 63 to 99 | –
12 | COCCCNc1cccc(C(=O)NC23CC4CC(CC(NC(=O)c5cccc(F)c5)(C4)C2)C3)n1 [Example 241, 6-(3-Methoxy-propylamino)-pyridine-2-carboxylic acid [3-(3-fluoro-benzoylamino)-adamantan-1-yl]-amide] | 63 to 99 | –
13 | CN(C)CCNc1cccc(C(=O)NC23CC4CC(CC(NC(=O)c5cccc(F)c5)(C4)C2)C3)n1 [Example 242, 6-(2-Dimethylamino-ethylamino)-pyridine-2-carboxylic acid [3-(3-fluoro-benzoylamino)-adamantan-1-yl]-amide] | 63 to 99 | –
14 | CN(C)CCCN(C)c1cccc(C(=O)NC23CC4CC(CC(NC(=O)c5cccc(F)c5)(C4)C2)C3)n1 [Example 243, 6-[(3-Dimethylamino-propyl)-methyl-amino]-pyridine-2-carboxylic acid [3-(3-fluoro-benzoylamino)-adamantan-1-yl]-amide] | 63 to 99 | –
15 | CC(=O)NCCNc1cccc(C(=O)NC23CC4CC(CC(NC(=O)c5cccc(F)c5)(C4)C2)C3)n1 [Example 244, 6-(2-Acetylamino-ethylamino)-pyridine-2-carboxylic acid [3-(3-fluoro-benzoylamino)-adamantan-1-yl]-amide] | 63 to 99 | –
16 | COCCNc1cccc(C(=O)NC23CC4CC(CC(NC(=O)c5cccc(F)c5)(C4)C2)C3)n1 [Example 245, 6-(2-Methoxy-ethylamino)-pyridine-2-carboxylic acid [3-(3-fluoro-benzoylamino)-adamantan-1-yl]-amide] | 63 to 99 | –
17 | COCCN(C)c1cccc(C(=O)NC23CC4CC(CC(NC(=O)c5cccc(F)c5)(C4)C2)C3)n1 [Example 246, 6-[(2-Methoxy-ethyl)-methyl-amino]-pyridine-2-carboxylic acid [3-(3-fluoro-benzoylamino)-adamantan-1-yl]-amide] | 63 to 99 | –
18 | CN(C)CCCNc1cccc(C(=O)NC23CC4CC(CC(NC(=O)c5cccc(F)c5)(C4)C2)C3)n1 [Example 247, 6-(3-Dimethylamino-propylamino)-pyridine-2-carboxylic acid [3-(3-fluoro-benzoylamino)-adamantan-1-yl]-amide] | 63 to 99 | –
19 | CN(C)CCN(C)c1cccc(C(=O)NC23CC4CC(CC(NC(=O)c5cccc(F)c5)(C4)C2)C3)n1 [Example 248, 6-[(2-Dimethylamino-ethyl)-methyl-amino]-pyridine-2-carboxylic acid [3-(3-fluoro-benzoylamino)-adamantan-1-yl]-amide] | 63 to 99 | –
20 | O=C(NC12CC3CC(C1)CC(NC(=O)c1cccc(N4CCC[C@H]4CO)n1)(C3)C2)c1cccc(F)c1 [Example 249, 6-((S)-2-Hydroxymethyl-pyrrolidin-1-yl)-pyridine-2-carboxylic acid [3-(3-fluoro-benzoylamino)-adamantan-1-yl]-amide] | 63 to 99 | –
21 | O=C(NC12CC3CC(C1)CC(NC(=O)c1cccc(N4CCC[C@@H]4CO)n1)(C3)C2)c1cccc(F)c1 [Example 250, 6-((R)-2-Hydroxymethyl-pyrrolidin-1-yl)-pyridine-2-carboxylic acid [3-(3-fluoro-benzoylamino)-adamantan-1-yl]-amide] | 63 to 99 | –
22 | NC(=O)[C@@H]1CCCN1c1cccc(C(=O)NC23CC4CC(CC(NC(=O)c5cccc(F)c5)(C4)C2)C3)n1 [Example 251, 6-((S)-2-Carbamoyl-pyrrolidin-1-yl)-pyridine-2-carboxylic acid [3-(3-fluoro-benzoylamino)-adamantan-1-yl]-amide] | 63 to 99 | –
23 | NC(=O)CCNc1cccc(C(=O)NC23CC4CC(CC(NC(=O)c5cccc(F)c5)(C4)C2)C3)n1 [Example 252, 6-(2-Carbamoyl-ethylamino)-pyridine-2-carboxylic acid [3-(3-fluoro-benzoylamino)-adamantan-1-yl]-amide] | 63 to 99 | –
24 | O=C(NC12CC3CC(C1)CC(NC(=O)c1cccc(-n4ccnc4)n1)(C3)C2)c1ccccn1 [Example 253, 6-Imidazol-1-yl-pyridine-2-carboxylic acid {3-[(pyridine-2-carbonyl)-amino]-adamantan-1-yl}-amide] | 63 to 99 | –
25 | Cc1cccc(C(=O)NC23CC4CC(C2)CC(NC(=O)c2cccc(-n5ccnc5)n2)(C4)C3)n1 [Example 254, 6-Imidazol-1-yl-pyridine-2-carboxylic acid {3-[(6-methyl-pyridine-2-carbonyl)-amino]-adamantan-1-yl}-amide] | 63 to 99 | –
26 | O=C(NC12CC3CC(C1)CC(NC(=O)c1cccc(-n4ccnc4)n1)(C3)C2)c1cccc(F)c1 [Example 255, 6-Imidazol-1-yl-pyridine-2-carboxylic acid [3-(3-fluoro-benzoylamino)-adamantan-1-yl]-amide] | 63 to 99 | –
27 | Cc1cncc(C(=O)NC23CC4CC(CC(NC(=O)c5cc(-c6ccc(F)cc6)ncn5)(C4)C2)C3)n1 [Example 256, 6-(4-Fluoro-phenyl)-pyimidine-4-carboxylic acid {3-[(6-methyl-pyrazine-2-carbonyl)-aminpo]-adamantan-1-yl}-amide] | – | EC50 [2]: 300 nM; maximum modulation [2]: 170%
28 | Cc1cncc(C(=O)NC23CC4CC(CC(NC(=O)c5cc(-c6ccccc6)ncn5)(C4)C2)C3)n1 [Example 257, 6-Phenyl-pyrimidine-4-carboxylic acid {3-[(6-methyl-pyrazine-2-carbonyl)-amino]-adamantan-1-yl}-amide] | – | EC50 [2]: 830 nM; maximum modulation [2]: 120%
